The values that follow come from ChEMBL document CHEMBL1201862, “PubChem BioAssay data set” (2004).

Among the test systems are A498; ACHN; BT-549; HCC 2998; HCT-116; HL-60; Hs-578T; IGROV-1; K562; MDA-MB-231; MDA-MB-435; NCI-H23; OVCAR-4; PC-3; SK-MEL-28; SK-MEL-2; SK-OV-3; T47D; UACC-257; M19-MEL.
Holding throughout (experiment): NCI anticancer screen, dose series, 48 h

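96-well plates; 48 h exposure; 5 concentrations. Endpoints by linear interpolation between flanking doses. Not reached: highest tested concentration assigned. GI50 is the concentration that inhibits growth by half.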 Calls of active or inactive are those of the source. Cut-off read from the data, not from the text of the source: active = GI50 up to about 1.1 µM and inactive = higher. Non-standard residues stand in square brackets, D forms with d. Residues, ends and D or L forms follow the SMILES beside them. *: point of attachment. Bn2Val = CC(C)[C@@H](C(=O)*)N(Cc1ccccc1)Cc1ccccc1; NMeV = CN[C@H](C(=O)O)C(C)C; X32 = COc1ccc(CN*)c(OC)c1; dNMeA = CN[C@H](C)C(=O)O Bounds are passed on as bounds.

Regarding `CC(C)(C)C1CCC2c3c([nH]c4ccccc34)C3C(=O)N(c4ccc([N+](=O)[O-])cc4)C(=O)C3C2C1` (stereo unspecified), the GI50 is 24.3 µM (inactive) in the assay with A498; 36.6 µM (inactive) in the assay on ACHN; 16.2 µM (inactive) in the assay with BT-549; 9.14 µM (inactive) in the assay on HCC 2998; 8.09 µM (inactive) with HCT-116; 6.11 µM (inactive) in the assay on HL-60. Moreover, the GI50 is 11.4 µM (inactive) in the assay on Hs-578T; 11.5 µM (inactive) in the assay on IGROV-1; 5.96 µM (inactive) with K562; 17.8 µM (inactive) in the assay on MDA-MB-231; 28.1 µM (inactive) with MDA-MB-435; 10.3 µM (inactive) with NCI-H23. For the same compound, the GI50 with OVCAR-4 is 5.62 µM (inactive); with PC-3, 26.9 µM (inactive); in the assay on SK-MEL-28, 96.6 µM (inactive); in the assay on SK-MEL-2, 11.8 µM (inactive); with SK-OV-3 it was 35.1 µM (inactive); with T47D, 13.9 µM (inactive). In addition, the GI50 in the assay with UACC-257 was 29.1 µM (inactive).
Take `Nc1c(C(=O)Nc2ccccc2O)[n+]([O-])c2ccccc2[n+]1[O-]`: the GI50 in the assay on A498 was > 100 µM (inactive); in the assay with ACHN, 87.5 µM (inactive); with HCT-116 it was 31.7 µM (inactive); with HL-60, 25.8 µM (inactive); with IGROV-1, 81.5 µM (inactive); with K562, 41.9 µM (inactive). Further, the GI50 with M19-MEL is 14.2 µM (inactive); in the assay with NCI-H23 it was 23.9 µM (inactive); in the assay on OVCAR-4, > 100 µM (inactive); in the assay with SK-MEL-28, 79.4 µM (inactive); in the assay on SK-MEL-2, 40.2 µM (inactive); in the assay with SK-OV-3, > 100 µM (inactive). Further, the GI50 in the assay with UACC-257 was 18.8 µM (inactive).
As for `CCOc1ccc2nc3nc(O)nc(C)c3c(NCCCN(CC)CC)c2c1`, the GI50 in the assay with A498, in the assay with ACHN, in the assay on BT-549, in the assay on HCC 2998, with HCT-116 and in the assay on HL-60 was > 100 µM (inactive) each time. Moreover, the GI50 with Hs-578T, in the assay with IGROV-1, with K562, in the assay with MDA-MB-231, in the assay with MDA-MB-435 and with NCI-H23 was > 100 µM (inactive) in each case. For the same compound, the GI50 in the assay on OVCAR-4, with PC-3, in the assay with SK-MEL-28, in the assay with SK-MEL-2, with SK-OV-3 and in the assay with T47D was > 100 µM (inactive) throughout. For the same compound, the GI50 in the assay on UACC-257 is > 100 µM (inactive).
Regarding `CCC12C[N+]3([O-])CCc4c([nH]c5ccccc45)C(C(=O)OC)(c4cc5c(cc4OC)N(C)C4C(O)(C(=O)OC)C(OC(C)=O)C6(CC)C=CCN7CCC54C76)CC(C3)C1O2` (stereo unspecified), the GI50 in the assay on A498 is 1.55 µM (inactive); with ACHN it was 10.5 µM (inactive); in the assay on HCC 2998 it was 2.55 µM (inactive); with HCT-116, 0.41 µM (active); in the assay with IGROV-1, 0.968 µM (active); in the assay with K562, 0.207 µM (active). The GI50 in the assay on M19-MEL is 0.617 µM (active); in the assay with NCI-H23, 0.465 µM (active); in the assay on OVCAR-4, 13.3 µM (inactive); in the assay with SK-MEL-28, 0.236 µM (active); with SK-MEL-2 it was 0.234 µM (active); in the assay on SK-OV-3, 0.336 µM (active). In addition, the GI50 in the assay on UACC-257 was 7.01 µM (inactive).
For `CCc1c(C#N)c(=O)[nH]c(=O)n1CCN1CCN(C(=O)NCCCCCCNC(=O)N2CCN(CCn3c(CC)c(C#N)c(=O)[nH]c3=O)CC2)CC1`, the GI50 in the assay on A498, with ACHN, with HCC 2998, with HCT-116, with HL-60 and with IGROV-1 was > 100 µM (inactive) in each case. In addition, the GI50 was > 100 µM (inactive) with K562; > 100 µM (inactive) in the assay with M19-MEL; > 100 µM (inactive) in the assay with OVCAR-4; > 10 µM (inactive) with SK-MEL-28; > 100 µM (inactive) in the assay on SK-OV-3; > 100 µM (inactive) in the assay with UACC-257.
As for `O=C1N(c2ccc(Cl)cc2)C(=O)C2(SC=NN2Cc2ccccc2)N1c1ccc(Cl)cc1` (stereo unspecified), the GI50 is > 100 µM (inactive) with A498; > 100 µM (inactive) in the assay on ACHN; > 100 µM (inactive) in the assay on HCC 2998; 9.18 µM (inactive) in the assay on HCT-116; 7 µM (inactive) in the assay with HL-60; > 100 µM (inactive) in the assay on IGROV-1. Also, the GI50 in the assay on K562 is 9.59 µM (inactive); in the assay with M19-MEL it was > 100 µM (inactive); in the assay on NCI-H23, 8.24 µM (inactive); in the assay with OVCAR-4, > 100 µM (inactive); in the assay with SK-MEL-28, > 100 µM (inactive); in the assay on SK-OV-3 it was > 100 µM (inactive). In the assay with UACC-257, the GI50 is > 100 µM (inactive).
For `Cc1cc(Cl)ccc1NC(=O)C(=O)C(C(=O)c1ccc2ccccc2c1)C1OC(=O)c2ccccc21` (stereo unspecified), the GI50 was 7.48 µM (inactive) in the assay with A498; 23.2 µM (inactive) in the assay with ACHN; 10.2 µM (inactive) in the assay on HCC 2998; 9.4 µM (inactive) in the assay on HCT-116; 20.8 µM (inactive) in the assay with IGROV-1; 8.61 µM (inactive) in the assay on K562. The GI50 with M19-MEL was 10.1 µM (inactive); with NCI-H23, 6.73 µM (inactive); in the assay with OVCAR-4 it was 7.6 µM (inactive); with SK-MEL-28, 9.79 µM (inactive); in the assay on SK-MEL-2, 12.8 µM (inactive); in the assay on SK-OV-3, 15.7 µM (inactive). Also, the GI50 in the assay on UACC-257 is 16.1 µM (inactive).
As to `O=C(CSc1nnc(-c2ccc(/N=C\c3ccc(Cl)cc3)cc2)o1)Nc1ccc([N+](=O)[O-])cc1`, the GI50 in the assay on ACHN was 11.9 µM (inactive); with HCT-116 it was 2.58 µM (inactive); with HL-60, 26.4 µM (inactive); with K562 it was 21.2 µM (inactive); in the assay with M19-MEL it was 17.1 µM (inactive); with NCI-H23, 19.4 µM (inactive). In addition, the GI50 in the assay on OVCAR-4 is 26.2 µM (inactive); in the assay on SK-MEL-28 it was 18.5 µM (inactive); in the assay with SK-MEL-2, 25.4 µM (inactive); in the assay on SK-OV-3, 35.9 µM (inactive); in the assay on UACC-257, 21.5 µM (inactive).
With `COc1cc(/C=C2\NC(=O)C3Cc4c(OC)c(C)c(OC)c(OC)c4C2N3C)c(OC)c(C)c1OC` (stereo unspecified), the GI50 in the assay with A498, in the assay on ACHN, in the assay with HCC 2998, in the assay on HCT-116, in the assay on HL-60 and in the assay with IGROV-1 was > 100 µM (inactive) in each case. Besides, the GI50 with K562, in the assay on M19-MEL, in the assay with NCI-H23, in the assay with OVCAR-4, in the assay with SK-MEL-28 and in the assay with SK-OV-3 was > 100 µM (inactive) each time. Further, the GI50 in the assay with UACC-257 is > 100 µM (inactive).
On to `COC1=CC(=O)C(Br)=CC1=O`, for which the GI50 is 36.3 µM (inactive) in the assay on HCC 2998; 5.32 µM (inactive) in the assay on HL-60; 17.3 µM (inactive) in the assay on IGROV-1; 3.06 µM (inactive) in the assay with K562; 17.7 µM (inactive) in the assay with M19-MEL; 18.9 µM (inactive) in the assay with NCI-H23. Moreover, the GI50 in the assay on OVCAR-4 was 17.9 µM (inactive); with SK-MEL-28, 19.5 µM (inactive); with SK-MEL-2, 20.5 µM (inactive); with SK-OV-3, > 100 µM (inactive); with UACC-257 it was 17.3 µM (inactive).
With `CSc1nc2c(nc(N)n2C2OC(CO)C(O)C(O)C2O)c(=O)[nH]1` (stereo unspecified), the GI50 with A498, with ACHN, in the assay with HCC 2998, with HCT-116, with HL-60 and with IGROV-1 was > 100 µM (inactive) each time. Moreover, the GI50 in the assay on K562, with M19-MEL, in the assay with NCI-H23, with OVCAR-4, in the assay on SK-MEL-28 and in the assay with SK-OV-3 was > 100 µM (inactive) in each case. In addition, the GI50 in the assay with UACC-257 is > 100 µM (inactive).
Regarding `CC(C)C1=CC23CCC4C(C)(C(=O)O)CCCC4(C)C2CC1C1C(=O)N(c2ccccc2)C(=O)C13` (stereo unspecified), the GI50 was 28.1 µM (inactive) with ACHN; 39.1 µM (inactive) in the assay with HCT-116; 95.9 µM (inactive) in the assay with HL-60; 37.2 µM (inactive) in the assay on IGROV-1; 69.8 µM (inactive) with K562; 57.8 µM (inactive) in the assay on M19-MEL. In addition, the GI50 with NCI-H23 is > 100 µM (inactive); in the assay on OVCAR-4 it was > 100 µM (inactive); with SK-MEL-28, 53.2 µM (inactive); with SK-MEL-2, 20.1 µM (inactive); with SK-OV-3, 56.4 µM (inactive); in the assay with UACC-257 it was 26.1 µM (inactive).
With `COc1ccc(CNC(=O)[C@@H]2CCCN2C(=O)[C@@H](C)N(C)C(=O)[C@H](C(C)C)N(C)C(=O)[C@@H](NC(=O)[C@H](C(C)C)N(Cc2ccccc2)Cc2ccccc2)C(C)C)c(OC)c1` (Bn2Val-V[NMeV][dNMeA]P-X32), the GI50 is 2.96 µM (inactive) in the assay on A498; 3.75 µM (inactive) with ACHN; 2.56 µM (inactive) in the assay on BT-549; 2.33 µM (inactive) in the assay with HCC 2998; 3.13 µM (inactive) with HCT-116; 0.0561 µM (active) in the assay with HL-60. Also, the GI50 is 7.53 µM (inactive) with Hs-578T; 3.4 µM (inactive) with IGROV-1; 0.0706 µM (active) with K562; 1.51 µM (inactive) in the assay on MDA-MB-231; 2.61 µM (inactive) with MDA-MB-435; 2.94 µM (inactive) with NCI-H23. In addition, the GI50 was 3.41 µM (inactive) with OVCAR-4; 2.9 µM (inactive) with PC-3; 3.29 µM (inactive) in the assay on SK-MEL-28; 1.77 µM (inactive) in the assay with SK-MEL-2; 10.7 µM (inactive) in the assay on SK-OV-3; 10.6 µM (inactive) with T47D. The GI50 with UACC-257 is 3.44 µM (inactive).
